Laboratory results: BindingDB's records for patent US11547697 (Millennium Pharmaceuticals, 2023)

Assays:
[1] = biological target: Phosphatidylinositol 4,5-bisphosphate 3-kinase catalytic subunit beta isoform (Homo sapiens, UniProt P42338); test: Inhibition Assay of PI3K
[2] = biological target: T1, Phosphatidylinositol 4,5-bisphosphate 3-kinase catalytic subunit delta isoform (Homo sapiens, UniProt O00329); test: Inhibition Assay of PI3K
T1 sequence (O00329 whole entry): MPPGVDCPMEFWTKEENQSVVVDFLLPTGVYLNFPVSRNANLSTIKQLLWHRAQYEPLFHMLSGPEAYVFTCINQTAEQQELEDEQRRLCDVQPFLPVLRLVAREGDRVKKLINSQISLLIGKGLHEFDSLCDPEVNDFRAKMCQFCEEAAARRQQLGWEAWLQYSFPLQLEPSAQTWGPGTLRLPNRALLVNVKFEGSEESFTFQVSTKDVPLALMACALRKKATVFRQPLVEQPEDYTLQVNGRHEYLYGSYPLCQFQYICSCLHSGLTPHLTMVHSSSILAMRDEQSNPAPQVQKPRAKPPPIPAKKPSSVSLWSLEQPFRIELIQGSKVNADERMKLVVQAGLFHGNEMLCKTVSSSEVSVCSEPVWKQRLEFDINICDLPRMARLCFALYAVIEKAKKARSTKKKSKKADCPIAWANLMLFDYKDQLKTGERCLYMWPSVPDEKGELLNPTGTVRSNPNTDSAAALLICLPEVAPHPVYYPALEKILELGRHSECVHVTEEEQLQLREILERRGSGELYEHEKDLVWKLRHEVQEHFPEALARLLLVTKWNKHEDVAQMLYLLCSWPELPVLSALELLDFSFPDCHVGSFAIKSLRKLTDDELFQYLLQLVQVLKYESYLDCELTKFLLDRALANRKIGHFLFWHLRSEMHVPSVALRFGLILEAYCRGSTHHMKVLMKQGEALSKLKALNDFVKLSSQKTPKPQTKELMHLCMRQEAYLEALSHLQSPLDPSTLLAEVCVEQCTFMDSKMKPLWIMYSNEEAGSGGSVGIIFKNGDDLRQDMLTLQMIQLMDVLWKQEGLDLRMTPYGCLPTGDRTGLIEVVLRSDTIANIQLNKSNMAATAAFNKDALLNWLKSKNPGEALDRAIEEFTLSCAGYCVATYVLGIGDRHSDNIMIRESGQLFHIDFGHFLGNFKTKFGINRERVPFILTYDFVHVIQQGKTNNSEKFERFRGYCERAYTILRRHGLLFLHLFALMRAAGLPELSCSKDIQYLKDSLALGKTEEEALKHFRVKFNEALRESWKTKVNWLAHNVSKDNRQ

Chain of Phosphatidylinositol 4,5-bisphosphate 3-kinase catalytic subunit beta isoform (P42338 whole entry, canonical isoform): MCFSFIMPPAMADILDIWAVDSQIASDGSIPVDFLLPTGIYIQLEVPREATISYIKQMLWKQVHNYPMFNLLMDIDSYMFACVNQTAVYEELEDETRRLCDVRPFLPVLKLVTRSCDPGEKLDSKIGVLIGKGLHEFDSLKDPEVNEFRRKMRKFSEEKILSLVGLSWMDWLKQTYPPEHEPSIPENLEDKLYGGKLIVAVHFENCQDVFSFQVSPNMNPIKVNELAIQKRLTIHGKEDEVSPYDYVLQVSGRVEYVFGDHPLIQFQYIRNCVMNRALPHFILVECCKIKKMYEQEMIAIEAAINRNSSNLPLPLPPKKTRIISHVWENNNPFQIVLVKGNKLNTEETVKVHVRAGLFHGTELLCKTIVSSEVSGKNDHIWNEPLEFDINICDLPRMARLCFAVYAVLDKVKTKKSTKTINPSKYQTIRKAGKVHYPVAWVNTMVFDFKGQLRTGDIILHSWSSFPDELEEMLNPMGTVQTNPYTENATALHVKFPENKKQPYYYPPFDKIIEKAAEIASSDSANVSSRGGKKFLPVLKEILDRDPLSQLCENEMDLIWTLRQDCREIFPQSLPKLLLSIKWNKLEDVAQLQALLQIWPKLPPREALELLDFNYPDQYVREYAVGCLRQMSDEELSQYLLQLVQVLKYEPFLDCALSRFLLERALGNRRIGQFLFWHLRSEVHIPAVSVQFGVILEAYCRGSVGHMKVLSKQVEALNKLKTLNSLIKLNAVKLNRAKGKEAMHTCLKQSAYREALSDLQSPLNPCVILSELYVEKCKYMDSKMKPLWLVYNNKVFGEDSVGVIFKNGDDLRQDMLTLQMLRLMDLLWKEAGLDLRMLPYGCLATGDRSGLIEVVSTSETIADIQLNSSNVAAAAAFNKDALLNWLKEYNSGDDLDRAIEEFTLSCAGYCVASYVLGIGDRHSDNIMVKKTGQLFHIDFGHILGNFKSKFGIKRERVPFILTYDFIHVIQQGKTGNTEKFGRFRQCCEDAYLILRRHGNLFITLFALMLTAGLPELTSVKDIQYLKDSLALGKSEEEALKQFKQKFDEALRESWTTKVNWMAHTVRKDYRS

Structure (SMILES)	IC50 [1]	IC50 [2]
Nc1nc2cc(-c3ccc4ncc(N5CC(N6CCC(O)CC6)C5)nc4c3)ccc2o1 [US11547697, Compound 341]	> 10 µM	–
Nc1nc2cc(-c3ccc4ncc(C(=O)N5CC(n6cccn6)C5)n4c3)ccc2o1 [US11547697, Compound 479]	> 10 µM	–
Nc1nc2ccc(-c3ccc4ncc(C(=O)N5CCOCC5)n4c3)cc2s1 [US11547697, Compound 125]	> 10 µM	–
Nc1nc2cc(-c3ccc4ncc(C(=O)N5CCCCC5)n4c3)ccc2o1 [US11547697, Compound 196]	–	> 10 µM
Nc1nc2cc(-c3ccc4ncc(C(=O)N5CCn6cncc6C5)n4c3)ccc2o1 [US11547697, Compound 493]	–	> 10 µM
C[C@@H]1COCCN1C(=O)c1cnc2ccc(-c3ccc4oc(N)nc4c3)cn12 [US11547697, Compound 495]	–	> 10 µM
Nc1nc2cc(-c3ccc4ncc(N5CCOCC5)nc4c3)ccc2o1 [US11547697, Compound 64]	–	> 10 µM
COCCN1CCN(c2cnc3ccc(-c4ccc5oc(N)nc5c4)cc3n2)CC1 [US11547697, Compound 387]	–	> 10 µM
Nc1nc2cc(-c3ccn4ncc(C(=O)N5CCCC5)c4c3)ccc2o1 [US11547697, Compound 346]	–	> 10 µM
COc1ncc(-c2ccc3ncc(C(=O)N4CCOCC4)n3c2)c2cn[nH]c12 [US11547697, Compound 517]	> 10 µM	–
CN1CCN(c2cnc3ccc(-c4ccc5nc(N)sc5c4)cc3n2)CC1 [US11547697, Compound 115]	–	> 10 µM
C[C@H]1COCCN1C(=O)c1cnc2ccc(-c3ccc4oc(N)nc4c3)cn12 [US11547697, Compound 483]	–	> 10 µM
Nc1nc2cc(-c3ccc4ncc(N5CCNC(=O)C5)nc4c3)ccc2o1 [US11547697, Compound 135]	–	> 10 µM
Nc1nc2cc(-c3ccc4ncc(N5CCOCC5)nc4c3)ccc2s1 [US11547697, Compound 116]	–	> 10 µM
CN1CCN(c2cnc3ccc(-c4ccc5sc(N)nc5c4)cc3n2)CC1 [US11547697, Compound 127]	–	> 10 µM
CN(CCN1CCOCC1)c1cnc2ccc(-c3ccc4oc(N)nc4c3)cc2n1 [US11547697, Compound 166]	–	> 10 µM
CN1CCN(C(=O)c2cnc3ccc(-c4ccc5nc(N)oc5c4)cn23)CC1 [US11547697, Compound 145]	–	> 10 µM
Nc1nc2cc(-c3ccc4ncc(C(=O)N5CCOCC5)n4c3)ccc2s1 [US11547697, Compound 126]	–	> 10 µM
CC(=O)Nc1nc2cc(-c3cc(F)c4oc(N)nc4c3)ccc2s1 [US11547697, Compound 435]	–	> 10 µM
Nc1nc2cc(-c3ccc4ncc(C(=O)N5CCOCC5)n4n3)ccc2o1 [US11547697, Compound 105]	–	> 10 µM
Nc1nc2cc(-c3ccc4ncc(C(=O)N5CC6(C5)OCCO6)n4c3)ccc2o1 [US11547697, Compound 494]	–	> 10 µM
Nc1nc2ccc(-c3ccc4ncc(C(=O)N5CCOCC5)n4c3)cc2o1 [US11547697, Compound 124]	–	> 10 µM
CC(=O)Nc1n[nH]c2cc(-c3ccc4oc(N)nc4c3)ccc12 [US11547697, Compound 430]	–	> 10 µM
Nc1nc2ccc(-c3ccc4ncc(N5CCOCC5)nc4c3)cc2o1 [US11547697, Compound 117]	–	> 10 µM
Nc1nc2cc(-c3ccc4ncc(N5CC(n6cccn6)C5)nc4c3)ccc2o1 [US11547697, Compound 318]	–	> 10 µM
Nc1nc2cc(-c3ccc4ncc(C(=O)N5CC6CCC(C5)O6)n4c3)ccc2o1 [US11547697, Compound 504]	–	> 10 µM
Nc1nc2cc(-c3ccc4ncc(-c5ccccn5)nc4c3)ccc2o1 [US11547697, Compound 195]	–	> 10 µM
Nc1nc2cc(-c3ccc4ncn(CCO)c(=O)c4c3)ccc2o1 [US11547697, Compound 184]	–	> 10 µM
Nc1nc2c(-c3ccc4ncc(C(=O)N5CCOCC5)n4c3)cccc2o1 [US11547697, Compound 496]	–	> 10 µM
Cc1nc2ccc(-c3ccc4oc(N)nc4c3)nn2c1-c1ccncc1 [US11547697, Compound 56]	–	> 10 µM

Results, then the molecule that gave them:

IC50 [1]	IC50 [2]	Structure (SMILES)
> 10 µM	–	Nc1nc2cc(-c3ccc4ncc(C(=O)N5CC[C@@H](n6cccn6)C5)n4c3)ccc2o1 [US11547697, Compound 477]
–	> 10 µM	Nc1nc2cc(-c3ccn4ncc(C(=O)N5CCOCC5)c4c3)ccc2o1 [US11547697, Compound 347]
–	> 10 µM	CN1CCN(c2cnc3ccc(-c4ccc5nc(N)oc5c4)cc3n2)CC1 [US11547697, Compound 118]
–	> 10 µM	Nc1nc2cc(-c3cc(F)c4oc(N)nc4c3)ccc2o1 [US11547697, Compound 432]
–	> 10 µM	C[C@H]1CN(c2cnc3ccc(-c4ccc5nc(N)sc5c4)cc3n2)CCN1 [US11547697, Compound 308]
> 10 µM	–	Nc1nc2cc(-c3ccc4ncc(C(=O)N5CC(N6CCC(F)(F)C6)C5)n4c3)ccc2o1 [US11547697, Compound 502]
> 10 µM	–	C[C@H]1CCCN1C(=O)c1cnc2ccc(-c3ccc4oc(N)nc4c3)cn12 [US11547697, Compound 482]
–	> 10 µM	Nc1nc2cc(-c3ccc4ncc(C(=O)N5CCOCC5)n4c3)cnc2o1 [US11547697, Compound 400]
–	> 10 µM	CN1CCCN(c2cnc3ccc(-c4ccc5oc(N)nc5c4)cc3n2)CC1 [US11547697, Compound 136]
> 10 µM	–	CC(=O)Nc1ncc(-c2ccc3oc(N)nc3c2)s1 [US11547697, Compound 235]
> 10 µM	–	COc1ncc(-c2ccc3ncc(C(=O)N4CCOCC4)n3c2)cc1NS(=O)(=O)c1ccccc1 [US11547697, Compound 420]
> 10 µM	–	Cc1ccc(NC(=O)c2cnc3ccc(-c4ccc5oc(N)nc5c4)cn23)cn1 [US11547697, Compound 294]
–	> 10 µM	CC(=O)Nc1nc2ccc(-c3ccc4nc(N)oc4c3)cc2s1 [US11547697, Compound 242]
–	> 10 µM	Nc1cn2cc(-c3ccc4oc(N)nc4c3)ccc2n1 [US11547697, Compound 245]
–	> 10 µM	CN(C)C1CN(c2cnc3ccc(-c4ccc5oc(N)nc5c4)cc3n2)C1 [US11547697, Compound 366]
–	> 10 µM	Nc1nc2cc(-c3ccc4ncc(C(=O)N(CCO)CCO)n4c3)ccc2o1 [US11547697, Compound 316]
–	> 10 µM	Nc1nc2cc(-c3ccc4nccc(NC5CCOCC5)c4c3)ccc2o1 [US11547697, Compound 32]
–	> 10 µM	Nc1nc2cc(-c3ccc4ncc(=O)[nH]c4c3)ccc2o1 [US11547697, Compound 72]

IC50 [1]	IC50 [2]	Structure (SMILES)
–	> 10 µM	Nc1nc2cc(-c3ccc4nccn4c3)ccc2o1 [US11547697, Compound 40]
–	> 10 µM	Nc1nc2cc(-c3ccc4ncc(N5CCOCC5)n4n3)ccc2o1 [US11547697, Compound 57]
–	> 10 µM	Nc1nc2ccc(-c3ccc4nc(N)sc4c3)cc2o1 [US11547697, Compound 243]
–	> 10 µM	CC(C)N1CCC(n2cnc3ccc(-c4ccc5oc(N)nc5c4)cc3c2=O)CC1 [US11547697, Compound 74]
–	> 10 µM	Nc1nc2cc(-c3ccc4nnc(-c5ccncc5)n4c3)ccc2o1 [US11547697, Compound 229]
–	> 10 µM	Nc1nc2cc(-c3ccc4c(N)n[nH]c4c3)ccc2o1 [US11547697, Compound 428]
–	> 10 µM	C[C@H]1CN(c2cnc3ccc(-c4ccc5nc(N)oc5c4)cc3n2)CCN1 [US11547697, Compound 309]
–	> 10 µM	Nc1nc2cc(-c3ccc4sc(N)nc4c3)cc(F)c2o1 [US11547697, Compound 437]
–	> 10 µM	Cc1cc(-c2ccc3nc(N)oc3c2)cn2c(C(=O)N3CCOCC3)cnc12 [US11547697, Compound 449]
–	> 10 µM	Nc1nc2cc(-c3ccc4ncn(C5CCNCC5)c(=O)c4c3)ccc2o1 [US11547697, Compound 75]
–	> 10 µM	Nc1nc2cc(-c3ccc4ncc(N5CCN(C6CC6)CC5)nc4c3)ccc2o1 [US11547697, Compound 261]
–	> 10 µM	Nc1nc2cc(-c3ccc4ncn(CCN5CCOCC5)c(=O)c4c3)ccc2o1 [US11547697, Compound 289]
–	> 10 µM	Cc1cc(-c2ccc3ncc(C(=O)N4CCOCC4)n3c2)cc2nc(N)oc12 [US11547697, Compound 364]
–	> 10 µM	Nc1nc2cc(-c3ccc4ncc(C(=O)N5CC(F)C5)n4c3)ccc2o1 [US11547697, Compound 468]
–	> 10 µM	Nc1nc2cc(-c3ccc4ncc(-c5cnn(CCO)c5)nc4c3)ccc2o1 [US11547697, Compound 108]
–	> 10 µM	COCCn1cnc2ccc(-c3ccc4oc(N)nc4c3)cc2c1=O [US11547697, Compound 272]
–	> 10 µM	CC1CN(C(=O)c2cnc3ccc(-c4ccc5oc(N)nc5c4)cn23)CCO1 (stereo not given) [US11547697, Compound 201]
